Measurements: article PMC4912613, “A broad analysis of resistance development in the malaria parasite” (Nature Communications, 2016)

Tests used:
[1] = tested on: P. falciparum 3D7, Dd2, Dd2Δexo; experiment: In vitro evolution of compound-resistant lines (selection); format: cell-based, Plasmodium falciparum; details: for Time Length to Obtain Mutants: in vitro selection; for # of Resistant Strains Generated: resistant cultures out of three independent cultures; for EC50 fold shifts observed: selected parasites vs selection parent
Text: While we found an overall lack of pre-existing resistance, analysing the onset of resistance was critical, as compounds resulting in rapid resistance are not ideal for clinical development. We therefore sought to create drug-resistant parasites using a variety of different selection methods. We implemented either a high-dose method or a ramp-up/pulse method for our in vitro selections. Two of the 50 compounds—MMV028895 and MMV665824—were removed from the selection study during experimentation. […] Out of the remaining 48 compounds, resistant parasites were obtained for 23 (Supplementary Data 1). As each selection was performed in triplicate with three independent cultures, we succeeded in generating a total of 66 resistant cultures. Parasites resistant to MMV026596 were not obtained despite 100 days of selection, but the cultures acquired hypersensitivity to mefloquine with a 10-fold reduction in EC50 compared with its parental line, 3D7. For the remaining 24 compounds, acquisition of resistant parasites was unsuccessful despite numerous attempts over an extensive period of time.
Based on the compound speed of action and lab specialty, selections were conducted using a high-pressure intermittent selection method, a step-wise selection method, or a constant selection method. For high-pressure selections, ∼1–2 × 10^9 parasites were treated at a concentration of 3–10 × EC50 until parasites could not be seen by microscopy (4–10 days). Following treatment, compound pressure was removed and cultures were allowed to recover. Once healthy parasites were seen and parasitemia reached ∼2%, compound pressure was reinstated. For step-wise selections, ∼1 × 10^8 parasites were treated at a starting concentration resulting in a reduced growth rate of 50%. Cultures were examined daily by microscopy, increasing compound concentration in increments of 5–10% as needed to maintain a 50% reduced growth rate. Selections were carried out until cultures achieved a reproducible EC50 fold shift of >3 × . Finally, constant selections were conducted in a similar manner to the high-pressure intermittent method with the exception that compound pressure was never removed. Following successful selection, cultures were cloned out using a limiting dilution method as previously described. Selections were terminated after 200 days if resistance could not be obtained.

[2] = tested on: CYTbQi (cytb G33A, parent Dd2); experiment: Cross-resistance EC50 assay, CYTbQi; format: cell-based; details: Plasmodium falciparum, SYBR green 72 hour assay, synchronized parasites, 384-well format
Text: To evaluate potential overlapping activity against known antimalarial drug targets, we performed dose-response studies with each compound against our assembled set of drug-resistant lines and their corresponding parents, in an asexual blood stage proliferation assay (Table 1). Comparisons were made to the drug-sensitive strain 3D7 when a parent was unavailable (TM90C2A, W2 and Dd2). As laboratories conducted EC50 assays with different strains and protocols, all comparisons were made between assays from the same laboratory and under the same assay conditions. Compounds displaying >5-fold EC50 shifts relative to the parent or sensitive strain were flagged as having potentially non-novel targets. Average fold shifts per strain ranged from 0.82 to 2.34, with a median of 1.23 indicating there was not common resistance to any one resistant clone. No resistance patterns were observed when classifying the compounds based on chemical structure, but this was not surprising given the diversity of compounds chosen. On the other hand, given that these confirmed compounds were derived from larger unconfirmed hit lists to which some filtration criteria may have been applied (for example, elimination of obvious dihydrofolate reductase inhibitors[32]), some[10][11][12][13] pre-existing bias may exist in the set. […]
Alternatively, a SYBR Green-based proliferation approach was used for the 72-h assay, as previously described. Briefly, a culture of either synchronized or asynchronous parasitized RBCs (0.3% parasitemia and 4% haematocrit) in screening medium (identical to supplemented medium above except no serum was added) was exposed to serial drug dilutions. Plates were incubated at 37 °C and gassed with 93% N2, 4% CO2 and 3% O2 for 72 h. Following incubation, 10 × SYBR Green I (Invitrogen; supplied in 10,000 × concentration) in lysis buffer ([…], 5 mM EDTA, 0.16% Saponin wt per vol and 1.6% Triton X vol per vol) was added to the wells and the plates were incubated overnight at room temperature before plate reading. EC50 assays were repeated three times, taking the average EC50 value from each assay set, and removing any outliers using a single iteration of Grubbs' test, eliminating values with z-scores above the critical z-value (α=0.05). The raw EC50 values for synchronized parasites assayed in a 384-well format are listed in Supplementary Data 4. The raw EC50 values for asynchronous parasites assayed in a 96 or 1536-well format are listed in Supplementary Data 5.
EC50 values for each strain were compared with those of the corresponding parent strain to determine fold-shift changes and identify resistance. To minimize the cause variance between assays, all comparisons were conducted between strains assayed under identical conditions. A one-way ANOVA followed by a Dunnet's post-test was conducted in GraphPad Prism to identify significant changes between the parent and resistant strain.

SMILES	Time Length to Obtain Mutants [1]	# of Resistant Strains Generated [1]	EC50 fold shifts observed [1]	EC50 ([2]; strain CYTbQi (Dd2 parent)) [nM]	EC50 ([2]; DD2, CYTbQi strain) [nM]
COc1cc(-c2nc(-c3ccccc3)c(-c3ccccc3)[nH]2)ccc1OCCN(C)C [MMV027496]	LONG (> 125 days)	0/3	no shift	317	
Cc1nc2ccc3ccc(CNc4ccc(C(=O)CC(CCC(=O)O)C(=O)O)cc4)cc3c2c(=O)[nH]1.Cl (centres unmarked) [MMV027634]	SHORT (0-50 days)	3/3	>15x	42	
CC(C)c1cccc(C(NC(=O)C2Cc3ccccc3CN2C(=O)c2cccc(N3CCOCC3)c2)C2CCCC2)c1 (centres unmarked) [MMV028038]	MODERATE (50-125 days)	3/3	5-30x	339	
O=C(NCC(CCCN1CCC(c2c[nH]c3ccccc23)CC1)c1ccccc1)Nc1ccc(Cl)c(Cl)c1 (centres unmarked) [MMV029272]	LONG (> 125 days)	3/3	6-9x	619	
CC(C)(C)OC(=O)N1CCN(c2ccccc2NC(=O)c2cccc(C(F)(F)F)c2Oc2ccc(F)cc2)CC1 [MMV030666]	LONG (> 125 days)	0/3	no shift	352	
CC(NCc1ccccc1)c1cc(Cl)ccc1O (centres unmarked) [MMV665789]	MODERATE (50-125 days)	2/3	3-7x	674	
FC(F)(F)c1cccc(Nc2nc3ccccc3nc2Nc2cccc(C(F)(F)F)c2)c1 [MMV665794]	SHORT (0-50 days)	0/3	no shift	128	
O=C(Nc1ccc(Cl)c(Cl)c1)Nc1ccc(Cl)c(Cl)c1 [MMV665852]	LONG (> 125 days)	0/3	no shift	1010	
OC(CNC1CCCCC1)Cn1c2ccc(I)cc2c2cc(I)ccc21 (centres unmarked) [MMV665882]	LONG (> 125 days)	3/3	2-3x	25	
O=C(Nc1ccccc1O)c1ccc(Oc2cccc(C(=O)Nc3ccccc3O)c2)cc1 [MMV665888]	LONG (> 125 days)	0/3	no shift	601	
COc1ccc(C(=O)C2CC2c2ccc(Cl)cc2)cc1 (centres unmarked) [MMV665924]	SHORT (0-50 days)	3/3	3-5x	1130	
CCC(C)NCC(O)(c1ccc(Cl)cc1)c1ccc(Cl)cc1 (centres unmarked) [MMV665928]	SHORT (0-50 days)	0/3	no shift	492	
O=C(Nc1ccsc1C(=O)NC1CCCCC1)c1ccc(F)cc1 [MMV665939]	MODERATE (50-125 days)	3/3	4-6x	1610	
Nc1ccc(-c2nc3cc(Cc4ccc5[nH]c(-c6ccc(N)cc6)nc5c4)ccc3[nH]2)cc1 [MMV665943]	SHORT (0-50 days)	0/3	no shift	450	
O=C(NC(c1ccccc1)c1ccc2cccnc2c1O)c1ccccc1 (centres unmarked) [MMV666080]	LONG (> 125 days)	0/3	no shift	1290	
COc1cc(C(=O)ON=C(N)Cc2cccc3ccccc23)cc(OC)c1OC [MMV666687]	LONG (> 125 days)	0/3	no shift	588	
c1cc(-c2cnc3ccc(-c4ccc(N5CCOCC5)cc4)nn23)ccn1 [MMV668311]	LONG (> 125 days)	0/3	no shift	66	
c1cncc(-c2cc(N3CCC(CN4CCOCC4)CC3)nc(-c3ccncc3)n2)c1 [MMV668399]	LONG (> 125 days)	3/3	2-4x	162	
COc1ccc2c3c([nH]c2c1)[C@H](CO)N(C(C)=O)CC31CCN(C(=O)Nc2ccccc2F)CC1 [MMV673482]	SHORT (0-50 days)	2/3	7-18x		84
CN(C)CCCNCc1ccc(-c2ccc(Cl)c(Cl)c2)o1 [MMV673964]	LONG (> 125 days)	0/3	no shift		319
